pIC50: −log10 of the molar value.
Columns and labels:
Trypanosoma cruzi [1] = assay: (§1) GSK_TCAKS: pIC50 Trypanosoma cruzi Imaging: Infected Cells. […] Cells were then washed once with PBS before infection. T. cruzi trypomastigotes, collected at days 5 to 8 after infection from LLC-MK2 parasite infected cultures, were allowed to swim out for 4h at 37C from a centrifuged pellet (2,500 rpm/10 min/room temperature). Trypomastigotes were then collected and counted in a CASY Cell Counter. Trypomastigotes, in supplemented DMEM, were added to H9c2 cultures in a multiplicity of infection of 1 and incubated for 18 h. Cells were washed once with PBS before incubation of the infected H9c2 monolayer with trypsin (Life-Technologies) to detach cells from the flask. Cells were counted in a CASY Cell Counter using a 150 um capillary and their density set at 5 * 10^4 cells per mL in supplemented assay DMEM. Infected H9c2 were dispensed into 384-well poly-lysine coated assay plates at 50uL per well using a Multidrop Combi dispenser. After seeding them, the plates were incubated at 37C, 5% CO2 for 72h. Cultures were then fixed and stained by addition of 50 uL of a solution containing 8% formaldehyde and 4 uM DRAQ5 DNA dye (BioStatus, UK) per well. […] Five images were collected per well for reliable statistical analysis. Automated image analysis was performed with a script developed on Acapella High Content Imaging and Analysis Software (PerkinElmer). Output: percentage of infected cells per well as a second infection marker.; format: functional, organism-based, Rattus norvegicus; conditions: H9c2, 4 h
Leishmania donovani [2] = assay: (§2) GSK_TCAKS: pIC50 Leishmania donovani Imaging: THP-1 Host Macrophages. Assay plates (384-well) were prepared by adding 250nL of compound to each well. For single shot assay, the final compound concentration was 5 uM. […] Automated image analysis was performed with a script developed on Acapella High Content Imaging and Analysis Software (PerkinElmer). Output: THP-1 cell count were reported for each well.; format: functional, organism-based, Homo sapiens
[3] = GSK_TCAKS: pIC50 HepG2 human cell line viability assay using luminiscence. […] Seeding density was checked to ensure that new mono-layers were not more than 50% confluent at the time of harvesting. Cell suspension was added to 500 mL of the same medium at a final density of 1.2 * 10^5 cells/mL. This cell suspension was dispensed (25 uL, 3000 cells per well) into 384-well clear-bottom plates using a Multidrop Combi dispenser. Prior to addition of the cell suspension, the screening compounds (250 nL) were pre-dispensed into the plates with an Echo liquid handler. Plates were incubated for 48 h at 37C, 5% CO2. After incubation, plates equilibrated at room temperature for 30 min before proceeding to develop the luminescent signal. The signal developer, CellTiter-Glo Reagent, was allowed to equilibrate at room temperature for 30 min and added to the plates (25uL per well) using a Multidrop Combi dispenser. Plates were left for 10 min at room temperature for stabilization and then read using a ViewLux.; format: toxicity, cell-based
Trypanosoma cruzi [4] = assay: as §1, with “H2C9” for “Trypanosoma cruzi”, “H9c2 Host Cardiomyocytes.” for “Infected Cells.”, “Number” for “percentage”, “H9c2 Host Cardiomyocytes nuclei to determine drug-related cytotoxicity.” for “infected cells per well as a second infection marker.”; format: functional, organism-based, Rattus norvegicus; conditions: H9c2, 4 h
Trypanosoma cruzi [5] = assay: GSK_TCAKS: pIC50 Trypanosoma cruzi viability assay using beta-GAL activity. This assay was run at single shot at 5uM compound concentration per well. The biological reagents consisted of NIH-3T3 host cells and trypomastigotes parasitic cells; both cell types were set to a 3.3 * 10^5 cells/mL dilution in assay DMEM by means of a CASY cell counter device using a 60um capillary. 6 uL of the mixture were dispensed per well (about 1 * 10^3 host-cells and 1 * 10^3 parasites) with a Multidrop Combi dispenser. […] In all wells, the percentage of DMSO never exceeded 0.5%. Plates incubated for four days at 37C, 5% CO2. The substrate used for the assay fluorescence intensity (FLINT) readout was resorufin-beta-D-galactopiranoside (Sigma-Aldrich) at 5uM per well. It was diluted in PBS supplemented with the soft detergent Igepal (Fluka).; format: functional, organism-based, Mus musculus; conditions: Tulahuen, NIH3T3
Leishmania donovani [6] = assay: as §2, with “Infected” for “THP-1 Host”, “Percent of infected macrophage cells” for “THP-1 cell count”; format: functional, organism-based, Homo sapiens; conditions: THP-1
NIH3T3 = assay: GSK_TCAKS: pIC50 NIH 3T3 cell line viability assay using luminiscence. Tissue culture surface treated assay plates (1536-well) were used. […] The 100% cells survival control was determined exposing the host-cells to a 0.5% DMSO concentration, whereas the 100% toxicity control was achieved by seeding the cells in presence of Amphotericin B at 50uM. Plates were incubated for four days at 37C, 5% CO2. The assay readout was developed by addition of 5uL of CellTiter-Glo Reagent following the manufacturer's instructions. Luminiscence was measured using a ViewLux.; format: functional, cell-based; conditions: Mus musculus, NIH3T3, 96 h
Leishmania donovani [7] = assay: GSK_TCAKS: pIC50 Leishmania donovani viability assay using fluorescence intensity. Assay plates (1536-well) were prepared by adding 30nL per well of compound. For single shot assay, the final compound concentration was 5uM. […] Briefly, eGFP LdBOB axenic amastigotes were harvested, fixed and counted in a CASY cell counter (Roche-Applied Science). A final concentration of 1.5 * 10^5 cells per well were prepared in amastigote media containing 500 U/mL penicillin/streptomycin (Invitrogen) and 6uL was dispensed to each experimental well using a Multidrop Combi dispenser (Thermo Scientific). 6uL of assay media was dispensed to control columns used as reference for 100% compound response. Following incubation for 72 h at 37C, 5% CO2, 2 uL of resazurin was added to each well at a final concentration of 0.5 mM in phosphate buffered saline (PBS) with IGEPAL (Sigma-Aldrich), 0.05% (v/v).; format: functional, organism-based
Trypanosoma cruzi [8] = assay: GSK_TCAKS: pIC50 Trypanosoma cruzi Imaging: Amastigotes/Cell. […] Cells were then washed once with PBS before infection. T. cruzi trypomastigotes, collected at days 5 to 8 after infection from LLC-MK2 parasite infected cultures, were allowed to swim out for 4h at 37C from a centrifuged pellet (2,500 rpm/10 min/room temperature). Trypomastigotes were then collected and counted in a CASY Cell Counter. Trypomastigotes, in supplemented DMEM, were added to H9c2 cultures in a multiplicity of infection of 1 and incubated for 18 h. Cells were washed once with PBS before incubation of the infected H9c2 monolayer with trypsin (Life-Technologies) to detach cells from the flask. Cells were counted in a CASY Cell Counter using a 150 um capillary and their density set at 5 * 10^4 cells per mL in supplemented assay DMEM. Infected H9c2 were dispensed into 384-well poly-lysine coated assay plates at 50uL per well using a Multidrop Combi dispenser. After seeding them, the plates were incubated at 37C, 5% CO2 for 72h. Cultures were then fixed and stained by addition of 50 uL of a solution containing 8% formaldehyde and 4 uM DRAQ5 DNA dye (BioStatus, UK) per well. […] Five images were collected per well for reliable statistical analysis. Automated image analysis was performed with a script developed on Acapella High Content Imaging and Analysis Software (PerkinElmer). Output: number of amastigotes per cell as infection level measurement.; format: functional, organism-based, Rattus norvegicus; conditions: H9c2, 4 h
[9] = system: Trypanosoma brucei brucei; assay: GSK_TCAKS: pIC50 Trypanosoma brucei viability assay using luminiscence. Assay plates (1536-well) were prepared. T. brucei cultures were harvested and counted in a CASY cell counter. A parasite suspension was prepared at a final concentration of 5 * 10^4 cells/mL in complete HMI9 medium and 6uL was dispensed to all wells containing compounds using a Multidrop Combi dispenser. 6uL of HMI9 media with 0.4% DMSO were dispensed to control columns. Plates were incubated for 24 h at 37C, 5% CO2 then tempered for 10 min at room temperature. ATP content was quantified by adding 4 uL of CellTiter-Glo Reagent (Promega) according to the manufacturer's instructions. Luminescence was measured using a ViewLux.; format: functional, organism-based; conditions: Lister 427, CASY
Leishmania donovani [10] = assay: as §2, with “Amastigotes/Macrophages.” for “THP-1 Host Macrophages.”, “Average number of amastigotes per macrophage” for “THP-1”, “cell” for “cell count”; format: functional, organism-based, Homo sapiens; conditions: THP-1
[11] = system: Trypanosoma brucei brucei; assay: GSK_TCAKS: pIC50 Trypanosoma brucei viability assay using fluorescence intensity. Assay plates (1536-well) were prepared by dispensing 25nL of compound solution per well using an Echo acoustic dispenser (Labcyte).; format: functional, organism-based; conditions: Lister 427, 2 h
[12] = target: Sterol 14-alpha demethylase (Trypanosoma cruzi (strain CL Brener), UniProt Q7Z1V1); assay: GSK_TCAKS: pIC50 CYP51 from Trypanosoma cruzi.; format: functional
Chain of Sterol 14-alpha demethylase (Q7Z1V1 whole entry): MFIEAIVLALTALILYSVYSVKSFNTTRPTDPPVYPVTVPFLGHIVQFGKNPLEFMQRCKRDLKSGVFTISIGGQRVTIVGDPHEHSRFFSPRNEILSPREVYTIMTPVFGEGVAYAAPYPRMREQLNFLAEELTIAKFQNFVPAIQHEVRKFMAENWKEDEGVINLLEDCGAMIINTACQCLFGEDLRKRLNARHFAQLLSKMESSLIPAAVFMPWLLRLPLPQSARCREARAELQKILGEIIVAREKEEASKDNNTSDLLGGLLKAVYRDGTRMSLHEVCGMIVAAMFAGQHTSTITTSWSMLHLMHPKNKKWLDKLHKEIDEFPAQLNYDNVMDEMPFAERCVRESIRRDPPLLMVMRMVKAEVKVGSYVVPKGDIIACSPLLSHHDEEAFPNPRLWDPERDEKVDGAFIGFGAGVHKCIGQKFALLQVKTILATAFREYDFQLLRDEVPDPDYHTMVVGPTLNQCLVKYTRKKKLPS

Compound | pIC50 (Trypanosoma cruzi [1]) | pIC50 (Leishmania donovani [2]) | IC50 at 48 h [3] [µM] | pIC50 (Trypanosoma cruzi [4]) | pIC50 (Trypanosoma cruzi [5]) | pIC50 (Leishmania donovani [6]) | pIC50 (NIH3T3) | pIC50 (Leishmania donovani [7]) | pIC50 (Trypanosoma cruzi [8]) | pIC50 [9] | pIC50 (Leishmania donovani [10]) | pIC50 [11] | pIC50 [12]
Cc1cccnc1CN1CCN(CCCOc2ccc(-c3ccc(C(N)=O)cc3)cc2)CC1 | 4.70 | 4.90 | > 100 | < 4.30 | 6.20 | 4.50 | 5.20 | < 4.30 | 6.40 | < 4.40 | 5.00 | 5.00 | < 4.00
COc1ccccc1-c1c(C)[nH]c2nc(N)nc(C)c12 | 6.60 | < 4.30 | > 100 | < 4.30 | 6.75 | 4.60 | < 4.30 | 4.90 | 6.90 | < 4.40 | 4.80 | 4.60 | < 4.00
CC(C(=O)Nc1ccc(Br)cc1)N1CCN(c2ccc([N+](=O)[O-])cc2)CC1 (stereo not given) | 5.60 | < 4.30 | > 100 | < 4.30 | 5.60 | < 4.30 | < 4.30 | < 4.30 | 5.50 | < 4.40 | < 4.30 | < 4.40 | 4.40
O=C(Cn1cnc([N+](=O)[O-])n1)Nc1ccc(Cl)cc1C(=O)c1ccccc1 | 5.90 | < 4.30 | > 100 | < 4.30 | 6.60 | < 4.30 | < 4.30 | < 4.30 | 6.50 | 4.50 | < 4.30 | 4.70 | 5.00
O=S(=O)(c1cccc(CSc2nnc(-c3ccc4c(c3)OCO4)o2)c1)N1CCOCC1 | 7.00 | < 4.30 | > 100 | 4.60 | 6.65 | 6.10 | 4.80 | 6.30 | 7.40 | < 4.40 | 6.60 | 4.50 | 4.90
COc1ccc(C(=O)Nc2cc(C(F)(F)F)ccc2N2CCOCC2)c(OC)c1 | 6.10 | 4.90 | > 100 | < 4.30 | 6.00 | 5.00 | 4.50 | 5.30 | 6.50 | 4.60 | 5.10 | 5.00 | < 4.00
Cc1ccc(S(=O)(=O)Nc2ccc(CN3CCN(C(=O)c4cccc(C#N)c4)CC3)cc2)cc1 | 6.30 | < 4.30 | > 100 | < 4.30 | 6.30 | < 4.30 | < 4.30 | 5.00 | 6.40 | 6.50 | 4.60 | 6.80 | < 4.00
Cc1nnnn1-c1cccc(C(=O)N2CCC[C@@]3(C)c4ncncc4CCC23)c1 (stereo not given in full) | 6.50 | < 4.30 | > 100 | < 4.30 | 6.20 | < 4.30 | < 4.30 | 6.40 | 6.50 | < 4.40 | 5.20 | < 4.40 | 4.60
CC(C(=O)Nc1ccccc1F)N(C)CC(=O)Nc1cccc2ccccc12 (stereo not given) | 6.30 | < 4.30 | > 100 | < 4.30 | 6.40 | < 4.30 | 4.90 | 4.30 | 6.50 | < 4.40 | < 4.30 | 4.60 | 4.80
COc1ccc([N+](=O)[O-])cc1NC(=O)Nc1cccc(Cl)c1 | 5.00 | 4.30 | > 100 | < 4.30 | 6.10 | < 4.30 | < 4.30 | < 4.30 | 6.40 | 4.70 | < 4.30 | 5.20 | < 4.00

— ChEMBL document CHEMBL3430912, “GSK Tres Cantos Anti-Kinetoplastid Screening (TCAKS) Data”
